Experimental data as given in ChEMBL document CHEMBL5465560, “Selectivity Literature for EUbOPEN Chemogenomic Library” (2024).

Columns and labels:
[1] = biological target: Tyrosine-protein kinase ABL2 (Homo sapiens, UniProt P42684); experiment: Selectivity interaction (KinomeScan (DiscoverX)) EUB0000045b ABL2
[2] = biological target: Receptor-interacting serine/threonine-protein kinase 3 (Homo sapiens) (UniProt Q9Y572); experiment: Selectivity interaction (LanthaScreen Eu Kinase Binding Assay) EUB0001632a RIPK3; details: at 10 µM
[3] = biological target: Protein polybromo-1 (Homo sapiens) (UniProt Q86U86); experiment: Selectivity interaction (Bromodomain panel (DSF asssay)) EUB0000270b PBRM1
[4] = biological target: Receptor-type tyrosine-protein kinase FLT3 (Homo sapiens) (UniProt P36888); details: at 10 µM
[5] = biological target: Dual specificity protein kinase CLK4 (Homo sapiens, UniProt Q9HAZ1); experiment: Selectivity interaction (ProQinase) EUB0000171b CLK4
[6] = biological target: Glycogen synthase kinase-3 alpha (Homo sapiens, UniProt P49840); experiment: Selectivity interaction (KinomeScan (DiscoverX)) EUB0001619a GSK3A; details: at 1 µM
[7] = biological target: T1, Serine/threonine-protein kinase Nek9 (Homo sapiens) (UniProt Q8TD19); experiment: Selectivity interaction (KinomeScan (DiscoverX)) EUB0001619a NEK9; details: at 1 µM
T1 sequence (whole entry): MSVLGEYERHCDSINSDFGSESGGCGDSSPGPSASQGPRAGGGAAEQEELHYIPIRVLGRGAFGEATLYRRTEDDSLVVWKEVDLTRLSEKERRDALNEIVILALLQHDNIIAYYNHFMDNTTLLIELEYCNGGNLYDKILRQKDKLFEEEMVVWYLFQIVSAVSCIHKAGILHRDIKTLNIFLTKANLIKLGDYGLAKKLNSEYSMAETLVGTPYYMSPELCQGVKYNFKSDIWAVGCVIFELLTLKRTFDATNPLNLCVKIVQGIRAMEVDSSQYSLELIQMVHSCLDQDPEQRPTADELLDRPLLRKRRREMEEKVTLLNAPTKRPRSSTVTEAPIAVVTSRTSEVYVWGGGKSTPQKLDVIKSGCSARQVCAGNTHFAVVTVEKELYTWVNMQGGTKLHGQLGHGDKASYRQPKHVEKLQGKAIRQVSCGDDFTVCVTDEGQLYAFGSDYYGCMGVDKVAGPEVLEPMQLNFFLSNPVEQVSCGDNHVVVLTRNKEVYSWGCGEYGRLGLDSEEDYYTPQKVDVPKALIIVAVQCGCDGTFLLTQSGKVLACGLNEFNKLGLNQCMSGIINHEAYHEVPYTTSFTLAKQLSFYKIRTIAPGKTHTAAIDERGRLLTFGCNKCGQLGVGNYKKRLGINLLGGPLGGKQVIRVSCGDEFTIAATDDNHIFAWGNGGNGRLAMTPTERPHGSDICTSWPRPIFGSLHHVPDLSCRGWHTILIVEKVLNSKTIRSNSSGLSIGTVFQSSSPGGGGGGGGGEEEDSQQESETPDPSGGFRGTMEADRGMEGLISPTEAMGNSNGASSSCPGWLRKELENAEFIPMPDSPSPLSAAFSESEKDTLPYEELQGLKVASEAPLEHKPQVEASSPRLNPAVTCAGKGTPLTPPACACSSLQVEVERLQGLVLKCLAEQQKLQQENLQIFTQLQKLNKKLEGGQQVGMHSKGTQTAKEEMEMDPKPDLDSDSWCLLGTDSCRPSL

[8] = biological target: Serine/threonine-protein kinase Nek7 (Homo sapiens) (UniProt Q8TDX7); experiment: Selectivity interaction (ActivX KiNativ screen (ex vivo kinase selectivity in human PBMCs)) EUB0001619a NEK7; type: cell-based; details: PBMC, at 1 µM
[9] = biological target: T2, Dual specificity mitogen-activated protein kinase kinase 4 (Homo sapiens) (UniProt P45985); experiment: Selectivity interaction (ActivX KiNativ screen (kinase selectivity in THP-1 cell lysates)) EUB0000639a MAP2K4; type: subcellular; details: lysate, at 0.01 µM
T2 sequence (whole entry): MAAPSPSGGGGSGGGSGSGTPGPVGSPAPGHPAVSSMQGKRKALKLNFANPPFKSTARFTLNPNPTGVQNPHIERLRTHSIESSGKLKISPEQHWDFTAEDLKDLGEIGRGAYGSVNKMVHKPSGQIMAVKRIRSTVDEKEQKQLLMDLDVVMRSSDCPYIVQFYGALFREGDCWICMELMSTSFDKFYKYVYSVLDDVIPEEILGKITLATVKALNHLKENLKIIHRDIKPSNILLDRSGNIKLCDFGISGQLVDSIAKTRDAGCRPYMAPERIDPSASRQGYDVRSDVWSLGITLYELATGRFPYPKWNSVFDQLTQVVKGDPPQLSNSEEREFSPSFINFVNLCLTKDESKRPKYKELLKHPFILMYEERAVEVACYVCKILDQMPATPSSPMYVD

[10] = biological target: T3, Serine/threonine-protein kinase Chk1 (Homo sapiens) (UniProt O14757); experiment: Selectivity interaction (ActivX KiNativ screen (kinase selectivity in THP-1 cell lysates)) EUB0000639a CHEK1; type: subcellular; details: lysate
T3 sequence (whole entry): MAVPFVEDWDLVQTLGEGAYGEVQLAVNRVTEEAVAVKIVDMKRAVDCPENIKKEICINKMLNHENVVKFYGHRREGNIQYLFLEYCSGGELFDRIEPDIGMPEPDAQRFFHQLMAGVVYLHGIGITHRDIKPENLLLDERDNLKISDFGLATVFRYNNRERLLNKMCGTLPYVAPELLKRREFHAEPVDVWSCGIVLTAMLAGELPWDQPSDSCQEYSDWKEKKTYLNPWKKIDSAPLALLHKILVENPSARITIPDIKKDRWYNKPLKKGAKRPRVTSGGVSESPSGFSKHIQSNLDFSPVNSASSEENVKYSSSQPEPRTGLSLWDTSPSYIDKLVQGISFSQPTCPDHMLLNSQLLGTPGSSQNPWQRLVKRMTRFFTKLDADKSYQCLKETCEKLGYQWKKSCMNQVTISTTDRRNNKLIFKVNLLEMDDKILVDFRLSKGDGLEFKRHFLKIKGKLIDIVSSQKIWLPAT

[11] = biological target: Casein kinase I isoform alpha (Homo sapiens, UniProt P48729); experiment: Selectivity interaction (ActivX KiNativ screen (kinase selectivity in THP-1 cell lysates)) EUB0000639a CSNK1A1; type: subcellular; details: lysate, at 0.04 µM
[12] = biological target: Serine/threonine-protein kinase pim-2 (Homo sapiens, UniProt Q9P1W9); experiment: Selectivity interaction (KinomeScan (DiscoverX)) EUB0000655a PIM2; details: at 10 µM
[13] = biological target: Cyclin-dependent kinase 13 (Homo sapiens, UniProt Q14004); experiment: Selectivity interaction (KinomeScan (DiscoverX)) EUB0000092b CDK13; details: at 10 µM

Tyrosine-protein kinase ABL2, sequence (P42684 whole entry): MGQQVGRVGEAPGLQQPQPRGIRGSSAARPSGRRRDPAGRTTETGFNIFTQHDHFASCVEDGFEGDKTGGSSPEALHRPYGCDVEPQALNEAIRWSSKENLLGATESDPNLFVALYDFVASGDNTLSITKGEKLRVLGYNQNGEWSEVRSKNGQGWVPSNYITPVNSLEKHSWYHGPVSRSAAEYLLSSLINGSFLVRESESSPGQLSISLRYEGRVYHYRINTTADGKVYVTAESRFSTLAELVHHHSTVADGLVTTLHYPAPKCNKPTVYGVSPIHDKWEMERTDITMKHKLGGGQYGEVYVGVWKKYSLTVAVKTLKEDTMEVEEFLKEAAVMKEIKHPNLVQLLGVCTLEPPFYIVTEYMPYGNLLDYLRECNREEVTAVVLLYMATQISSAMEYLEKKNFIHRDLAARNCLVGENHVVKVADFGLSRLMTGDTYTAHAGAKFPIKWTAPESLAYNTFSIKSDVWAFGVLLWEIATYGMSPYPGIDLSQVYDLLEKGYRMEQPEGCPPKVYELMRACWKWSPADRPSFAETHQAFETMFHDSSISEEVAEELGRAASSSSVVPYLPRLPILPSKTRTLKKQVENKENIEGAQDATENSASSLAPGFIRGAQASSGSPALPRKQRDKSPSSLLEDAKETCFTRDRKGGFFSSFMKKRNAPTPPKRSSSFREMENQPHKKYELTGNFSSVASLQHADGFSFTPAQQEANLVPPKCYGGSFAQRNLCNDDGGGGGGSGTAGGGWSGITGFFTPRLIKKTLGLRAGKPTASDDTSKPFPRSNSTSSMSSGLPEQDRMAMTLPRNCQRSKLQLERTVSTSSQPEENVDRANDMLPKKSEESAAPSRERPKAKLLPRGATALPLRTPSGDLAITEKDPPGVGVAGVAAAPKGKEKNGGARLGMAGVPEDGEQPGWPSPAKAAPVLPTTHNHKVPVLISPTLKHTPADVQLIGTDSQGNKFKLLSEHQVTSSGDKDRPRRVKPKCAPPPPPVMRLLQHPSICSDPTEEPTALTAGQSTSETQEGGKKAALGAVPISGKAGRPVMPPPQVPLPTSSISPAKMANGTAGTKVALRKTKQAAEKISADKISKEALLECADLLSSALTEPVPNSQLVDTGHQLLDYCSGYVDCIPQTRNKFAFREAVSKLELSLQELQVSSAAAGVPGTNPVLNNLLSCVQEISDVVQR
Dual specificity protein kinase CLK4, sequence (Q9HAZ1 whole entry, looked up): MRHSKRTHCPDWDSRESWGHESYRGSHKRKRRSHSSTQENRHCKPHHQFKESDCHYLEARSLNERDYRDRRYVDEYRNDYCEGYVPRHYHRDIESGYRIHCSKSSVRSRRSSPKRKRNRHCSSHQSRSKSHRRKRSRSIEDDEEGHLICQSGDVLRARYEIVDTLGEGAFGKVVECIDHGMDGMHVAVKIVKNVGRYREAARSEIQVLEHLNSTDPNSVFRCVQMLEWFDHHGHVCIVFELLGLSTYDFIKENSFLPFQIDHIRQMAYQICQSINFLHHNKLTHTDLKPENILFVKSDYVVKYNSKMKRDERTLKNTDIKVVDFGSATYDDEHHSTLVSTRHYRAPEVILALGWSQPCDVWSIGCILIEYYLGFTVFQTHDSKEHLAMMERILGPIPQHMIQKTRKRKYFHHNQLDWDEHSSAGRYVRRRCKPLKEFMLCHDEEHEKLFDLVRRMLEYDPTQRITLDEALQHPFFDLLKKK
Protein polybromo-1 (Homo sapiens), sequence (Q86U86 whole entry): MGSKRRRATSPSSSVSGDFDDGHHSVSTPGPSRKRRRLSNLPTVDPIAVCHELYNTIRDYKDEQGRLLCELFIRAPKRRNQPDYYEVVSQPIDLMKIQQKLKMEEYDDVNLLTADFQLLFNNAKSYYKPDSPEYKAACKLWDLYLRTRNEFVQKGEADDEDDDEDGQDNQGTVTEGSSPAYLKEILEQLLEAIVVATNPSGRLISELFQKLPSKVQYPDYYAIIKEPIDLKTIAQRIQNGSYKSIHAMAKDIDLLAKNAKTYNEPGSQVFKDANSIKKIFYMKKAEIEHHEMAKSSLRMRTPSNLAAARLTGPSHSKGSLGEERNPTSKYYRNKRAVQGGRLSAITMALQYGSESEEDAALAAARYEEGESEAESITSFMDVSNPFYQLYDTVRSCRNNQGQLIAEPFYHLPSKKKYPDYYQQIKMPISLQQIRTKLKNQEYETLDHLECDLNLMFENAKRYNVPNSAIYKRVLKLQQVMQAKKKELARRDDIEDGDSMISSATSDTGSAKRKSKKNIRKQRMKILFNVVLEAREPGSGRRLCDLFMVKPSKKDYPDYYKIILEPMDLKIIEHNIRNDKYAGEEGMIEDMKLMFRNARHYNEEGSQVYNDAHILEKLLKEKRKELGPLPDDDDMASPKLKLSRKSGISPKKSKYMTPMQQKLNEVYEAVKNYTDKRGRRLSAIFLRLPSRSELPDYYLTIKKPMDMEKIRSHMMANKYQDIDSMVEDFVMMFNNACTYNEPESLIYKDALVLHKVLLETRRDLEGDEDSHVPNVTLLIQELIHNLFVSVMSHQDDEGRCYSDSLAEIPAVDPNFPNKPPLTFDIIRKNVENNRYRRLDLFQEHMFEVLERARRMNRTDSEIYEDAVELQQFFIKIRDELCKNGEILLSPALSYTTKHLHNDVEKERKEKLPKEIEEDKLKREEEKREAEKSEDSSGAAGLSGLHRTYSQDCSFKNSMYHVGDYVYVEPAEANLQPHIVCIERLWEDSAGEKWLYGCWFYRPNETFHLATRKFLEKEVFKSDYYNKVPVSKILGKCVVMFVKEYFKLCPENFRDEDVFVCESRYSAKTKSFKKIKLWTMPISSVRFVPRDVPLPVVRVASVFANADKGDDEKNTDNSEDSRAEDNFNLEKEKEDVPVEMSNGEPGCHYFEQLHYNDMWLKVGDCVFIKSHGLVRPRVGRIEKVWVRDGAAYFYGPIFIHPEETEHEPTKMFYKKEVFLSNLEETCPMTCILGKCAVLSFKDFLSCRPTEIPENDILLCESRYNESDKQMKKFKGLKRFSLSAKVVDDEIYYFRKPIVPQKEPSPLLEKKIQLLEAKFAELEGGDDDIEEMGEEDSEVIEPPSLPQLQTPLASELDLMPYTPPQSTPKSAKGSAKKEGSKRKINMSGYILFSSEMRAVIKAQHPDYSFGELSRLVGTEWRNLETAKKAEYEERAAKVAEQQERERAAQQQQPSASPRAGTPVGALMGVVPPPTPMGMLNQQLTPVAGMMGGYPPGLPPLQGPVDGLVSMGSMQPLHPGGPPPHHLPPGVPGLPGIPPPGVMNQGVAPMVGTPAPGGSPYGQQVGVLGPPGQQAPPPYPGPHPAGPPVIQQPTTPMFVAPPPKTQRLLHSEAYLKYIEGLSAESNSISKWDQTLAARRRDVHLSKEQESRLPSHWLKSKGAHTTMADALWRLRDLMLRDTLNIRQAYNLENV
Glycogen synthase kinase-3 alpha, sequence (P49840 2-483 limits assumed): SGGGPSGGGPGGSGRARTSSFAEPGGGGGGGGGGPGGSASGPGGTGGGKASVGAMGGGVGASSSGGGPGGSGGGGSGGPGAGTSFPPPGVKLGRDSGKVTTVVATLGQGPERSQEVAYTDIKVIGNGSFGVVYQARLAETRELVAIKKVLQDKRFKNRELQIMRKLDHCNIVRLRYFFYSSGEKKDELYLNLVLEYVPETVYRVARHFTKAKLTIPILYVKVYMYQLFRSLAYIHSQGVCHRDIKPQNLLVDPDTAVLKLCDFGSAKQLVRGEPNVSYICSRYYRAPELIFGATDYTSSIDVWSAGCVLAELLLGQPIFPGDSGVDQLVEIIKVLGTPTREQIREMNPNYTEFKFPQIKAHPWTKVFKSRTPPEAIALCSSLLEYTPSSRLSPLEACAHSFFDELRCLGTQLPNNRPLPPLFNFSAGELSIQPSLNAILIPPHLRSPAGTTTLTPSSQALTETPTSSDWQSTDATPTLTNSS
Serine/threonine-protein kinase Nek7 (Homo sapiens), sequence (Q8TDX7 whole entry, looked up): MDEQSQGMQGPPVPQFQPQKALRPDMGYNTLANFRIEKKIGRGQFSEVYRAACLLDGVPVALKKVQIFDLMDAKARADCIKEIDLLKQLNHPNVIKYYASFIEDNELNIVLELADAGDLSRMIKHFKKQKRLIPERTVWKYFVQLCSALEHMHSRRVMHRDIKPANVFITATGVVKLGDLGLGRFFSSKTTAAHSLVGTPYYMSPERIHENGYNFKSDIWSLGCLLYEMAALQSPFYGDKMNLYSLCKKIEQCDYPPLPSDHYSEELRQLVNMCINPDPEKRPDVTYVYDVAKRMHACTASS
Serine/threonine-protein kinase pim-2, sequence (Q9P1W9 whole entry, looked up): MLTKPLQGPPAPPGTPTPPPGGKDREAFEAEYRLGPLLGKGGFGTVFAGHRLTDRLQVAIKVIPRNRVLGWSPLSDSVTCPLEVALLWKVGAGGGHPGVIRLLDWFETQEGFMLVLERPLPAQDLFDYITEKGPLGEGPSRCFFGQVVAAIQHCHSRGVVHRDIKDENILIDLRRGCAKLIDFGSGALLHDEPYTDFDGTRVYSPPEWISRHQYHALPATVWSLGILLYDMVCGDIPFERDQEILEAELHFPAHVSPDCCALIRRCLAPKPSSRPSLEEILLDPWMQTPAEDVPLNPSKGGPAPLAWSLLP
Casein kinase I isoform alpha, sequence (P48729 2-337 limits assumed): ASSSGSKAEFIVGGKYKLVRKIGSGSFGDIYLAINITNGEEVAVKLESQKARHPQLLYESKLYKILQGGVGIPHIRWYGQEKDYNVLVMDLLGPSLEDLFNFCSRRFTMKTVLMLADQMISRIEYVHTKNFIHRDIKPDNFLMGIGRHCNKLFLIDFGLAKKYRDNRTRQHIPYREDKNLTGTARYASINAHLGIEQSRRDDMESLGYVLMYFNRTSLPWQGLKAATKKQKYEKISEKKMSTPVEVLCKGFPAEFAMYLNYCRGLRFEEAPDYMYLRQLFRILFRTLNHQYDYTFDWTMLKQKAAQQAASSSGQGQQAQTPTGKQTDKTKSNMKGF

C=CC(=O)Nc1cc(-n2c(=O)ccc3cnc4ccc(-c5ccc(NS(C)(=O)=O)cc5)cc4c32)ccc1C
% of control ([1]; at 1 µM): 100%
% of control ([1]; at 10 µM): 100%

Cn1cc(-n2cnc3c(NCc4nc5cc(Cl)c(Cl)cc5[nH]4)nc(N4CCOCC4)nc32)cn1
% of inhibition [2]: -15.4%

Cc1cc(CN)cc(C)c1-c1ncn(C)c1-c1cncn1C
dTM [3]: -1.91 K

Cc1cc([C@@H](C)Nc2ccccc2C(=O)O)c2nc(N3CCOCC3)cc(=O)n2c1 [AZD-6482]
% of control [4]: 13%

C=CC(=O)Nc1cccc(C(=O)Nc2ccc(Nc3cc(-c4[nH]c(SC)nc4C)ccn3)cc2)c1
% of control ([5]; at 1 µM): 46%
% of control ([5]; at 5 µM): 20%

N#Cc1cccc(-c2c[nH]c3ncnc(N4CCOCC4)c23)c1
% of control [6]: 100%
% of control [7]: 97%
% of inhibition [8]: 7%

CC[C@@H]1[C@H](F)C(=O)N[C@@H]1COc1nccc2cc(C(N)=O)c(OC)cc12 [ZIMLOVISERTIB]
% of inhibition [9]: -5.8%
% of inhibition ([10]; at 0.01 µM): -7.6%
% of inhibition ([10]; at 0.04 µM): 11.8%
% of inhibition ([10]; at 0.2 µM): -8.5%
% of inhibition ([10]; at 1 µM): 0.6%
% of inhibition ([10]; at 5 µM): -18.5%
% of inhibition [11]: -2.5%

CN(C)CCOc1ccc(-c2nc(-c3ccncc3)c(-c3ccc4c(c3)CC/C4=N\O)[nH]2)cc1
% of control [12]: 78%

CCC(=O)N1CCN(c2ccc(-n3c(=O)ccc4cnc5ccc(-c6cnc7ccccc7c6)cc5c43)cc2C(F)(F)F)CC1
% of control [13]: 80%
